pEC50, pKi: −log10 of the molar value.
Key:
5-HT4 receptor [1] = target: T1, 5-HT4 receptor (Rattus norvegicus, UniProt Q62758); assay type: cell-based; conditions: Table I; tissues from 5 rats; carbachol 3 μM; read-out: 5-HT4 Agonism (Rat TMM) In Vitro Assay: EC50 values
T1 construct: The inner tunica muscularis mucosa was mounted under 0.2-0.3 g of tension in a tissue bath; from tissue; host or cells: rat intrathoracic oesophagus, tunica muscularis mucosae
From the text: (§1) (Baxter et al., Naunyn Schmied Arch. Pharmacol, 1991, 343, 439). […] One with skill in the art could determine the activity of the compounds of the present invention using the methodology of these assays, described herein, without undue experimentation.
One 2 cm segment of intrathoracic esophagus proximal to the diaphragm was removed from male rats, weighing approximately 300 gm, and the outer muscle layers removed. The inner tunica muscularis mucosa was mounted under 0.2-0.3 g of tension in a tissue bath containing oxygenated Tyrode's solution at 37° C. […] Following a 30 min equilibrium period, tissues were isometrically contracted with carbachol (3 μM) to obtain a tonic contraction. A stable plateau was obtained within 20 min when test compound was added cumulatively to relax the muscle strip. EC50 values were obtained for each agonist in tissues from 5 rats.

5-HT3 receptor = target: T2, 5-HT3 receptor (Rattus norvegicus, UniProt P35563); experiment: 5-HT3 radioligand receptor binding assay ([3H]-GR65630, rat brain cortex membranes)
T2 construct: Brain cortices were obtained from male rats and a membrane fraction prepared by standard techniques; from tissue; host or cells: rat brain cortex membranes
T2 sequence (P35563 24-483): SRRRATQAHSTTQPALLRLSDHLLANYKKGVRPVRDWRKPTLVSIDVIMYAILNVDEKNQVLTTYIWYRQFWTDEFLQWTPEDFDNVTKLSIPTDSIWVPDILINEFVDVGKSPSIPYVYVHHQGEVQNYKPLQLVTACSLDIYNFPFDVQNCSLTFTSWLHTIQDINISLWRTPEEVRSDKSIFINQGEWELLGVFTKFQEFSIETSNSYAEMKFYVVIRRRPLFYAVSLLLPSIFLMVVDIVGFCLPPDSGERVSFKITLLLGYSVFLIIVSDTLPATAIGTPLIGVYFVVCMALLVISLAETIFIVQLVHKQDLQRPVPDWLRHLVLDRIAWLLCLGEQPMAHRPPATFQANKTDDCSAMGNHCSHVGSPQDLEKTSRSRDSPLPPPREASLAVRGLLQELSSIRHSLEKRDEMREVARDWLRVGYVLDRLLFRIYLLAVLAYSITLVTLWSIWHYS
Procedure: as §1
Procedure: GR65630 binds to the 5-HT3 receptor. Brain cortices were obtained from male rats and a membrane fraction prepared by standard techniques. 0.04 mg of membrane prep was incubated with 0.2 nM [^3 H]-GR65630 for 66 minutes at 22° C. […] Membranes were filtered and washed 3 times and the filters were counted to determine [^3 H]-GR65630 specifically bound. (Kilpatrick G. J., Jones B. J. and Tyers M. B., Identification and Distribution of 5-HT3 Receptors in Rat Brain Using Radioligand Binding Assay, Nature, 330, 746-748 (1987)).

myenteric neurons = conditions: Nemeth and Gullikson; cited from earlier work
5-HT4 receptors = conditions: Craig and Clarke; cited from earlier work
5-HT4 receptor [2] = conditions: Dumuis et al 1989; mouse embryonic colliculi neurons; cited from earlier work
antroduodenal motility = conditions: Van Nueten et al 1989, cited from earlier work
GI transit = conditions: cited from earlier work
gastric emptying = conditions: cited from earlier work; for gastric emptying: Gidda et al 1988; for gastric emptying rates in vivo: Buchheit et al 1985
[3] = system: guinea pig stomach strips; conditions: cited from earlier work; for guinea pig stomach muscle strip contraction in vitro: Buchheit et al 1985
charcoal meal transit = conditions: Kimura et al 1989; cited from earlier work
GI tract = conditions: various animal models; cited from earlier work
[4] = system: 5-HT3-mediated Bezold Jarisch reflex; conditions: in vivo; cited from earlier work

T1 sequence (Q62758 whole entry): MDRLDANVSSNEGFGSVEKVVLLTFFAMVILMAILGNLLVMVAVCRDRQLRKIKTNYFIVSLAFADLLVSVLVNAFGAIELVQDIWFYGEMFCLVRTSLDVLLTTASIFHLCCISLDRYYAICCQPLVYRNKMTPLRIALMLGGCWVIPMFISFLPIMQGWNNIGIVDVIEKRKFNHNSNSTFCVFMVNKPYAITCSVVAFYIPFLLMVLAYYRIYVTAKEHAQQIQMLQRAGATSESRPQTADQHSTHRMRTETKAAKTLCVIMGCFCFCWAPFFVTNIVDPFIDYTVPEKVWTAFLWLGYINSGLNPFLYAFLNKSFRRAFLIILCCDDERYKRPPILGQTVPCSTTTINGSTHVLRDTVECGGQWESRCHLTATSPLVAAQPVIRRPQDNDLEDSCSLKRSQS

For `COc1cc(N)c(Cl)cc1C(=O)NC[C@@H]1[C@H]2C[C@H]3C[C@@H]1N(C3)C2` (relative stereo) [Example 1, 4-amino-5-chloro-N-(hexahydro-2β,6β-methano-1H,7aα-pyrrolizin-1β-ylmethyl)-2-methoxybenzamide], the pEC50 (5-HT4 receptor [1]) was 6.76 and the pKi (5-HT3 receptor; read-out: Ki, effect of compounds on [3H]-GR65630 bound, Table II, 0.2 nM [3H]-GR65630, 66 minutes, 22° C.) was 8.26.

In the case of `COc1cc(N)c(Cl)cc1C(=O)NC[C@@H]1[C@@H]2C[C@@H]3C[C@H]1N(C3)C2` (relative stereo) [Example 2, 4-amino-5-chloro-N-(hexahydro-2β,6β-methano-1H,7aα-pyrrolizin-1β-ylmethyl)-2-methoxybenzamide], the pEC50 (5-HT4 receptor [1]) was 6.38.

In the case of `COc1cc(N)c(Cl)cc1C(=O)NC1CCN2CCCC1C2` (stereo not shown) [BRL-24924], the “ability to depolarize myenteric neurons versus 5-HT3 antagonism” value (myenteric neurons) is listed as “unrelated to their properties of 5-HT3 antagonism”, the “peristaltic reflex evoked, mediated through agonism at 5-HT4 receptors” value (5-HT4 receptors) is listed as “mediated through agonism at 5-HT4 receptors” and the “agonist activity at 5-HT4 receptor” value (5-HT4 receptor [2]) is listed as “agonist activity”.

In the case of `COc1cc(N)c(Cl)cc1C(=O)NC1CCN(CCCOc2ccc(F)cc2)CC1OC` (stereo not shown) [Cisapride], the “ability to depolarize myenteric neurons versus 5-HT3 antagonism” value (myenteric neurons) is listed as “unrelated to their properties of 5-HT3 antagonism”, the “antroduodenal motility in dogs” value (antroduodenal motility) is listed as “enhanced antroduodenal motility in dogs” and the “agonist activity at 5-HT4 receptor” value (5-HT4 receptor [2]) is listed as “agonist activity”.

`COc1cc(N)c(Cl)cc1C(=O)NC[C@@H]1[C@H]2C[C@H]3C[C@@H]1N(C3)C2` [Example 3, 4-amino-5-chloro-N-(hexahydro-2β,6β-methano-1H,7aα-pyrrolizin-1S,1α-ylmethyl)-2-methoxybenzamide] gave a pEC50 (5-HT4 receptor [1]) of 6.85.

`COc1cc(N)c(Cl)cc1C(=O)NC[C@H]1[C@@H]2C[C@@H]3C[C@H]1N(C3)C2` [Example 4, 4-amino-5-chloro-N-(hexahydro-2β,6β-methano-1H,7aα-pyrrolizin-1R,1α-ylmethyl)-2-methoxybenzamide] gave a pEC50 (5-HT4 receptor [1]) of 6.56.

In the case of `Cc1nccn1CC1CCc2c(c3ccccc3n2C)C1=O` (stereo not shown) [GR38032], the “GI transit in man” value (GI transit; Gore et al 1990) is given as “failed to accelerate GI transit”, the “colonic transit in man” value (GI transit; Gore et al 1990) is given as “slowed colonic transit in man” and the “small intestinal transit times or mouth-to-cecum transit times” value (GI transit; Talley et al 1989, man) is given as “did not alter small intestinal transit times or mout-to-cecum transit times”. The gastric emptying (gastric emptying) was “enhanced gastric emptying”.

For `CN1[C@@H]2CC[C@H]1C[C@@H](OC(=O)c1c[nH]c3ccccc13)C2` [ICS 205-930], the “guinea pig stomach muscle strip contraction in vitro” value [3] is given as “enhanced guinea pig stomach muscle strip contraction in vitro”, the “effect on the responses to cisapride when coadministered” value (antroduodenal motility; dogs) is given as “did not affect the responses to cisapride” and the “gastric emptying rates in vivo” value (gastric emptying) is given as “increases in gastric emptying rates in vivo”. For the same molecule, the gastric emptying (gastric emptying) was “enhanced gastric emptying”.

In the case of `CN1[C@@H]2CC[C@H]1C[C@@H](OC(=O)c1cc(Cl)cc(Cl)c1)C2` [MDL 72222], the “guinea pig stomach muscle strip contraction in vitro” value [3] is listed as “enhanced guinea pig stomach muscle strip contraction in vitro” and the “gastric emptying rates in vivo” value (gastric emptying) is listed as “increases in gastric emptying rates in vivo”.

For `Cc1nccn1CC1CCc2c(c3ccccc3n2C)C1=O.Cl.O.O` (stereo not shown) [SN-307], the “transit of a charcoal meal in mice” value (charcoal meal transit) is listed as “enhanced transit of a charcoal meal in mice”.

In the case of `NCCc1c[nH]c2ccc(O)cc12` [Serotonin, 5-hydroxytryptamine], the “peristalsis in the GI tract” value (GI tract) is listed as “promote peristalsis in the GI tract” and the “peristaltic reflex evoked, mediated through agonism at 5-HT4 receptors” value (5-HT4 receptors) is listed as “mediated through agonism at 5-HT4 receptors”.

In the case of `Cc1nc[nH]c1CCC(=O)c1cn(C)c2ccccc12` [[^3 H]-GR65630], the “% Specific Binding” value (5-HT3 receptor; radioligand, non-specific binding with 1 uM ICS 205-930) was 70% and the Bmax (5-HT3 receptor; radioligand, rat brain cortex membranes) was 154 fmol/mg protein.

In the case of `CCN(CC)CCNC(=O)c1cc(Cl)c(N)cc1OC` [metoclopramide], the “guinea pig stomach muscle strip contraction in vitro” value [3] is listed as “enhanced guinea pig stomach muscle strip contraction in vitro”, the “electrical-field stimulated contractions in guinea pig stomach strips” value ([3]; Gunning and Naylor 1985) is listed as “enhanced electrical-field stimulated contractions in guinea pig stomach strips” and the “block of the 5-HT3-mediated Bezold Jarisch reflex” value [4] is listed as “blocks the 5-HT3-mediated Bezold Jarisch reflex”. The “gastric emptying rates in vivo” value (gastric emptying) was “increases in gastric emptying rates in vivo”.

For `COc1cc(N)c(Cl)cc1C(=O)NC1CN2CCC1CC2` (stereo not shown) [zacopride], the gastric emptying (gastric emptying) is listed as “enhanced gastric emptying”.

From patent publication US5446049A, “Azanoradamantanes for treatment of conditions responsive to 5-HT agonists and/or antagonists” (priority 1994, dated 1995)
